Experimental data from US20080153838A1, “Compounds Having Tie2 (Tek) Activity” (ASTRAZENECA AB, priority 2005, published 2008).

How the values were obtained:
[1] = target: T1, Tie2 receptor tyrosine kinase (Homo sapiens, UniProt Q02763); experiment: In vitro receptor tyrosine kinase inhibition assay (ELISA, Test (a)); type: biochemical; set-up: consist of only the intracellular portion C-terminal portion of the respective receptor, within which is found the kinase domain; made in house; host or cells: baculovirus/Sf21 insect cells; cleared lysate used without purification; settings: recombinant human Tie2 kinase domain, peptide substrate
Protocol: a. In Vitro Receptor Tyrosine Kinase Inhibition Assay
To test for inhibition of Tie2 receptor tyrosine kinase, compounds are evaluated in a non-cell based protein kinase assay by their ability to inhibit the protein kinase enzyme phosphorylation of a tyrosine containing polypeptide substrate in an ELISA based microtitre plate assay. In this particular case, the assay was to determine the IC50, for three different recombinant human tyrosine kinases Tie2, KDR and Flt.
To facilitate production of the tyrosine kinases, recombinant receptor genes were produced using standard molecular biology cloning and mutagenesis techniques. These recombinant proteins fragments encoded within these genes consist of only the intracellular portion C-terminal portion of the respective receptor, within which is found the kinase domain. The recombinant genes encoding the kinase domain containing fragments were cloned and expressed in standard baculovirus/Sf21 system (or alternative equivalent). […]
Constitutive kinase activity of these recombinant proteins was determined by their ability to phosphorylate a synthetic peptide (made up of a random co-polymer of Glutamic Acid, Alanine and Tyrosine in the ratio of 6:3:1). […]
The immobilised phospho-peptide product of the reaction was detected by immunological methods. […] Following extensive washing with PBS-T, HRP activity in each well of the plate was measured […] using 22′-Azino-di-[3-ethylbenzthiazoline sulfonate (6)] diammonium salt crystals ABTS (Sigma P4922—prepared as per manufactures instructions) as a substrate incubated for 30-45 minutes to allow colour development, before 100 ul of 1M H2SO4 was added to stop the reaction.
Quantification of colour development and thus enzyme activity was achieved by the measurement of absorbance at 405 nm on a Molecular Devices ThermoMax microplate reader. Kinase inhibition for a given compound was expressed as an IC50 value. […] The range of phosphorylation was calculated from the positive (vehicle plus ATP) and negative (vehicle minus ATP) control values.
Target sequence in this assay (Q02763 770-1124 limits assumed): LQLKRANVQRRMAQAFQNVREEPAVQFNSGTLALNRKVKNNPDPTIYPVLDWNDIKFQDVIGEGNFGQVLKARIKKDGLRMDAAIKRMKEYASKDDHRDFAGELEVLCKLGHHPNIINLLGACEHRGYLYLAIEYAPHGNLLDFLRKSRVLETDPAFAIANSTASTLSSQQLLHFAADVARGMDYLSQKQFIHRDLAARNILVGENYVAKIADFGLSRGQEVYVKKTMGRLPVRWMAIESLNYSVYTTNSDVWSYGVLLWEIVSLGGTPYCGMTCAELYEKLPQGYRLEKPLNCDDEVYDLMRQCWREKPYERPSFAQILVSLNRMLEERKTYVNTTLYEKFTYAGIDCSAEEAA

[2] = target: T1, Tie2 receptor tyrosine kinase; experiment: Cellular Tie2 autophosphorylation assay (Test (b)); type: cell-based; set-up: one can use natural cell lines or primary cells which are known to express the receptor of choice; endogenous in cells; host or cells: EA.hy926/B3 cells (HUVEC named as alternative); settings: Ang1 ligand stimulated whole cells (e.g. EA.hy926/B3); read-out: IC50 (μM) Test (b): Inhibition of autophosphorylation of Tie2 receptor tyrosine kinase
Source text: b. Cellular Tie2 Autophosphorylation Assay
This assay is based on measuring the ability of compounds to inhibit autophosphorylation of the Tie2 receptor which normally leads to the production of “activated” receptor that in turn initiates the particular signal transduction pathways associated with the receptor function.
Autophosphorylation can be achieved by a number of means. It is known that expression of recombinant kinase domains in baculoviral systems can lead to the production of phosphorylated and activated receptor. It is also reported that over expression of receptors in recombinant cell lines can itself lead to receptor autophosphorylation in the absence of the ligand (Heldin C-H. 1995 Cell: 80, 213-223; Blume-J. P, Hunter T. 2001 Nature: 411, 355-65). Furthermore, there are numerous literature examples in which chimaeric receptors have been constructed. In these cases the natural, external cell surface domain of the receptor has been replaced with that of a domain which is known to be readily dimerised via the addition of the appropriate ligand (e.g. TrkA-Tie2/NGF ligand (Marron, M. B., et al., 2000 Journal of Biological Chemistry: 275:39741-39746) or C-fms-Tie-1/CSF-1 ligand (Kontos, C. D., et al., 2002 Molecular and Cellular Biology: 22, 1704-1713). Thus when the chimaeric receptor expressed in a host cell line and the respective ligand is added, this induces autophosphorylation of the chimeric receptor's kinase domain. This approach has the advantage of often allowing a known (and often easily obtained) ligand to be used instead of having to identify and isolate the natural ligand for each receptor of interest.
Naturally if the ligand is available one can use natural cell lines or primary cells which are known to express the receptor of choice and simply stimulate with ligand to achieve ligand induced phosphorylation. […]
Target sequence in this assay (Q02763 23-1124): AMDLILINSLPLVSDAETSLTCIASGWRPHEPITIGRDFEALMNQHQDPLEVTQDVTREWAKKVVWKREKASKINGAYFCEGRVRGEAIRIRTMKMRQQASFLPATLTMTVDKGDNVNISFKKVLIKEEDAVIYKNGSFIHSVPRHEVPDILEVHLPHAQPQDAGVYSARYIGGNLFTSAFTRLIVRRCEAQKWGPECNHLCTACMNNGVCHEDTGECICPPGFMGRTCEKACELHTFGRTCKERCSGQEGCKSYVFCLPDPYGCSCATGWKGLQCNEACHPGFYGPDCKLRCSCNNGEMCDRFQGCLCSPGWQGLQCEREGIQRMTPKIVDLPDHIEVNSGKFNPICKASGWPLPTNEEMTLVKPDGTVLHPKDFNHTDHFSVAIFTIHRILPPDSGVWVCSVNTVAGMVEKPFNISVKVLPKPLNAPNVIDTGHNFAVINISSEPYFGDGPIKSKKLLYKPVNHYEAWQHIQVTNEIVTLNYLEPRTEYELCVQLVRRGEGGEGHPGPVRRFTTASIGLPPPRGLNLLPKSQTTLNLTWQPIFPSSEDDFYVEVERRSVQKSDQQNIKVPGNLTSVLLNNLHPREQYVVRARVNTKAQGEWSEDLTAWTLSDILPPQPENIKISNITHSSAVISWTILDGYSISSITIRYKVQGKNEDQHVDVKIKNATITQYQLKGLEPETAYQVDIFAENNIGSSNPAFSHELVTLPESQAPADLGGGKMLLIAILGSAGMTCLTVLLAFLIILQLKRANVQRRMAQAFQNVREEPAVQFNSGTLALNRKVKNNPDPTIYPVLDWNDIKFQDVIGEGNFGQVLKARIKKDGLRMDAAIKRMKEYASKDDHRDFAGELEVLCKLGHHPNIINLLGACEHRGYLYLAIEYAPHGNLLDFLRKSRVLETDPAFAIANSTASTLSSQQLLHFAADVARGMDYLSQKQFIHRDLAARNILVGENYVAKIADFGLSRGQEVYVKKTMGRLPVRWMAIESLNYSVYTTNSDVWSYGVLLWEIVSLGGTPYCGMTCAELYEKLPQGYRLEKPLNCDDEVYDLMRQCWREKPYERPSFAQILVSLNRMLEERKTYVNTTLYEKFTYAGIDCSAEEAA

Compound | IC50 [1] | IC50 [2]
CC(C)(C)c1cc(NC(=O)Nc2cccc(C#Cc3ccc(N)nc3)c2)no1 [Example 2, N-{3-[(6-aminopyridin-3-yl)ethynyl]phenyl}-N′-(5-tert-butylisoxazol-3-yl)urea] | 2.6 µM | 0.031 µM
CC(C)(C)c1cc(NC(=O)Nc2cccc(C#Cc3cccnc3N)c2)no1 [Example 3, N-2{3-[(2-aminopyridin-3-yl)ethynyl]phenyl}-N′-(5-tert-butylisoxazol-3-yl)urea] | 8.2 µM | 0.077 µM
CC(C)(C)c1cc(NC(=O)Nc2cccc(C#Cc3cnc(N)cn3)c2)no1 [Example 5, N-{3-[(5-aminopyrazin-2-yl)ethynyl]phenyl}-N′-(5-tert-butylisoxazol-3-yl)urea] | 4.4 µM | 0.02 µM
